Converted amounts (≈) assume the structure as drawn. The source made the active and inactive calls. The calls are words filed in the database; no cut-off is given here.
How the values were obtained:
[1] = biological target: T1, Autotaxin (Homo sapiens, UniProt Q13822); assay: Inhibition of ATX (unknown origin) using bis-(p-nitrophenyl)phosphate as substrate
[2] = Kinetic solubility of compound in phosphate buffer at pH 7.4 for 1 hr; assay type: physicochemical; settings: read-out: Kinetic_solubility
[3] = tested on: A2780; assay: Cytotoxicity against human A2780 cells at 30 uM after 42 hrs by alamar blue assay; assay type: cell-based; settings: a2780, 42 h
[4] = Lipophilicity, log D of compound at pH 7.4 by RP-HPLC analysis; assay type: physicochemical; settings: buffer
[5] = tested on: PC-3; assay: Inhibition of LPA-induced cell proliferation of human PC3 cells at 10 uM after 18 hrs by [3H]-thymidine incorporation assay; assay type: functional, cell-based
[6] = Permeability of compound across artificial membrane after 3 hrs by LC-MS analysis; assay type: ADME; settings: PAMPA; read-out: permeability
[7] = biological target: T1, Autotaxin; assay: Inhibition of ATX (unknown origin) using bis-(p-nitrophenyl)phosphate as substrate at 30 uM
[8] = biological target: Lysophosphatidic acid receptor 1 (Homo sapiens) (UniProt Q92633); assay: Antagonist activity at LPA1 receptor (unknown origin) expressed in CHO-K1 cells assessed as LPA-induced receptor activity measured as remaining receptor activity at 10 uM compound incubated for 1 hr followed by addition of LPA for 3 hrs by luminometry; assay type: cell-based
Lysophosphatidic acid receptor 1 (Homo sapiens), sequence (Q92633 whole entry): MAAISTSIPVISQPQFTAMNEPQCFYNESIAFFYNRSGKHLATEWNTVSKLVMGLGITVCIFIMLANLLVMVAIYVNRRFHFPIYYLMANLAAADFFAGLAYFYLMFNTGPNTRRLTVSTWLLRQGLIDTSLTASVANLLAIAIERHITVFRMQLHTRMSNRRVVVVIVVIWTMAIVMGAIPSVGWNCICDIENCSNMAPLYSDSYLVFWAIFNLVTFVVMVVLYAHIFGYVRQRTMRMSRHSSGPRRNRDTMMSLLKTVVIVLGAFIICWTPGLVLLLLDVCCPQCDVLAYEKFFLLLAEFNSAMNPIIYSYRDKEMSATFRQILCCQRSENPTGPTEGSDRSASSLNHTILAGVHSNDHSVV

SMILES	Ki [1] [µM]	solubility kinetic at 1 h [2] [mg/mL]	Activity [3]	logD [4]	inhibition [5]	Papp at 3 h [6] [nm/s]	inhibition [7] [%]	Activity [8] [%]
O=C(O)Cc1ccc(-c2cccc(NC(=O)OCc3ccccc3)c2)cc1	4.5	0.198 (≈ 548 µM)	Non-toxic	3.19	Active	73	–	–
O=C(Cc1ccc(-c2ccc3cc[nH]c3c2)cc1)OCc1ccccc1	> 30	0.11 (≈ 322 µM)	–	7.43	–	510	–	–
Cc1noc(-c2ccc(CSCCC(=O)O)cc2)c1NC(=O)OC(C)c1ccccc1Cl (stereo unspecified)	–	–	–	–	–	–	< 20	16
O=C(O)Cc1ccc(-c2ccc(N(C(=O)OCc3ccccc3)C3CCCCC3)cc2)cc1	2	0.189 (≈ 426 µM)	Non-toxic	4.92	Active	150	–	–
CC(C)N1C(=O)CN(Cc2ccc(-c3ccc(CC(=O)O)cc3)cc2)C1=O	1.2	0.19 (≈ 519 µM)	–	1.1	–	3	–	–
O=C(O)Cc1ccc(-c2ccc(CN3CC(=O)N(c4ccccc4)C3=O)cc2)cc1	3.6	0.175 (≈ 436 µM)	–	2.18	–	3	–	–
O=C1CN(Cc2ccc(-c3ccc(C4(C(=O)O)CC4)cc3)cc2)C(=O)N1c1ccccc1	> 30	0.195 (≈ 457 µM)	–	1.5	–	16	–	–
O=C(Nc1cccc(-c2ccccc2)c1)OCc1ccccc1	> 30	0.005 (≈ 16.5 µM)	–	7.52	–	450	–	–
O=C1CN(Cc2ccc(Br)cc2)C(=O)N1c1ccccc1	< 5	–	–	–	–	–	–	–
COC(=O)CNCc1ccc(Br)cn1	< 5	–	–	–	–	–	–	–
O=C1CN(Cc2ccc(-c3ccccc3)cc2)C(=O)N1c1ccccc1	1.3	0.0075 (≈ 21.9 µM)	Non-toxic	6.24	Active	540	–	–
Cc1noc(-c2ccc(-c3ccc(CC(=O)O)cc3)cc2)c1NC(=O)O[C@H](C)c1ccccc1	–	–	–	–	–	–	< 20	11
CC(C)N1C(=O)CN(Cc2ccc(Br)cn2)C1=O	< 5	–	–	–	–	–	–	–
Brc1ccc(NC2CCOCC2)cc1	< 5	–	–	–	–	–	–	–
COC(=O)CNCc1ccc(Br)cc1	< 5	–	–	–	–	–	–	–
O=C(O)Cc1ccc(-c2ccc(N(C(=O)OCc3ccccc3)C3CCOCC3)cc2)cc1	> 30	0.212 (≈ 476 µM)	–	3.13	–	23	–	–
O=C1CN(Cc2ccc(Br)cc2)C(=O)N1C1CCCCC1	< 5	–	–	–	–	–	–	–
CC(C)N1C(=O)CN(Cc2ccc(-c3ccc(CC(=O)O)cc3)cn2)C1=O	4	0.108 (≈ 294 µM)	–	-1.38	–	< 10	–	–
O=C(O)Cc1cccc(-c2cccc(NC(=O)OCc3ccccc3)c2)c1	3.5	0.221 (≈ 612 µM)	–	3.1	–	64	–	–
O=C(O)Cc1ccc(-c2ccc(CN3CC(=O)N(C4CCCCC4)C3=O)cc2)cc1	1.8	0.185 (≈ 456 µM)	–	1.12	–	22	–	–
O=C(O)Cc1ccccc1-c1cccc(NC(=O)OCc2ccccc2)c1	4	0.287 (≈ 794 µM)	–	3.06	–	140	–	–
O=C(Cc1ccc(-c2ccc3[nH]ccc3c2)cc1)OCc1ccccc1	1.1	0.07 (≈ 205 µM)	–	7.25	–	445	–	–
O=C(O)Cc1ccc(-c2ccc(CN3CC(=O)N(C4CCCCC4)C3=O)nc2)cc1	3.9	0.093 (≈ 228 µM)	–	-0.35	–	< 30	–	–

— ChEMBL document CHEMBL3739319, “Identification of a novel class of autotaxin inhibitors through cross-screening” (Medchemcomm, 2015)
